Tests used:
barnyard grass = assay: Test Example 3: herbicidal effect by foliage application, Wagner pot (Table 18, symbol H); assay type: in vivo, barnyard grass (Echinochloa crus-galli)
Procedure, shortened: (§1)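 Plants were sown in alluvial soil held under 0.1–0.5 cm standing water and grown 14 days in a greenhouse at 25–30 °C. An emulsifiable formulation, water-diluted to the set dose, was then sprayed onto the foliage, and effects were scored three weeks later using previously defined criteria.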

oval-leafed pondweed = assay: Test Example 1: herbicidal activity, application before weed generation under submerged conditions (Table 16, symbol C); assay type: in vivo, oval-leafed pondweed (Monochoria vaginalis)
Excerpt: (§2) [Test Example 1] Herbicidal Activity Test by Application before Weed Generation under Submerged Conditions After alluvial soil was placed into 1/10000 are of Wagner pot, water was poured and mixed to form a submerged condition having a water depth of 4 cm. Seeds of late watergrass, Japanese bulrush, and oval-leafed pondweed were sowed in a mixed manner in the aforementioned pot, and then 2.5 leaf stage rice plant seedlings were transplanted thereto. On the day of sowing seeds, the emulsion agent of the compound of the present invention prepared according to Formulation Example 2 was diluted with water so as to achieve a predetermined herbicide amount, and the diluted emulsion agent was applied to the surface of the water. The pot was placed in a greenhouse at 25° C. to 30° C. for growth of the plants. Three weeks after the herbicide application, the effect of the herbicide on each plant was evaluated according to the following criteria. Evaluation Criteria 5: Herbicidal rate of 90% or more (almost completely withered) 4: Herbicidal rate of 70% or more and less than 90% 3: Herbicidal rate of 40% or more and less than 70% 2: Herbicidal rate of 20% or more and less than 40% 1: Herbicidal rate of 5% or more and less than 20% 0: Herbicidal rate of 5% or less (almost no effect)

Japanese bulrush = assay: Test Example 1: herbicidal activity, application before weed generation under submerged conditions (Table 16, symbol B); assay type: in vivo, Japanese bulrush (Schoenoplectus juncoides)
Excerpt: as §2

rice flat sedge = assay: Test Example 3: herbicidal effect by foliage application, Wagner pot (Table 18, symbol E); assay type: in vivo, rice flat sedge (Cyperus iria)
Procedure, shortened: as §1

Chinese sprangletop = assay: Test Example 3: herbicidal effect by foliage application, Wagner pot (Table 18, symbol D); assay type: in vivo, chinese sprangletop (Leptochloa chinensis)
Procedure, shortened: as §1

late watergrass = assay: Test Example 1: herbicidal activity, application before weed generation under submerged conditions (Table 16, symbol A); assay type: in vivo, late watergrass (Echinochloa oryzicola)
Excerpt: as §2

[1] = amount of applied herbicide 224 g/ha
[2] = amount of applied herbicide 320 g/ha
[3] = amount of applied herbicide 246 g/ha

Cc1nn(C)c(=O)c(-c2c(-c3cccc(OCC(F)(F)F)c3)sc3ccc(F)cc23)c1O [2-238]
herbicidal effect on H: barnyard grass (barnyard grass; [1]): 3 (Herbicidal rate of 40% or more and less than 70%)
Herbicidal effect on C: oval-leafed pondweed (grade 0-5) (oval-leafed pondweed; 224 g/ha applied herbicide): 0 (Herbicidal rate of 5% or less (almost no effect))
Herbicidal effect on B: Japanese bulrush (grade 0-5) (Japanese bulrush; 224 g/ha applied herbicide): 0 (Herbicidal rate of 5% or less (almost no effect))
herbicidal effect on E: rice flat sedge (rice flat sedge; [1]): 3 (Herbicidal rate of 40% or more and less than 70%)
herbicidal effect on D: Chinese sprangletop (Chinese sprangletop; [1]): 2 (Herbicidal rate of 20% or more and less than 40%)
Herbicidal effect on A: late watergrass (grade 0-5) (late watergrass; 224 g/ha applied herbicide): 3 (Herbicidal rate of 40% or more and less than 70%)

Cc1nn(C)c(=O)c(-c2c(-c3cc(C(F)(F)F)cc(C(F)(F)F)c3)sc3ccc(F)cc23)c1O [2-358]
herbicidal effect on H: barnyard grass (barnyard grass; [2]): 3 (Herbicidal rate of 40% or more and less than 70%)
Herbicidal effect on C: oval-leafed pondweed (grade 0-5) (oval-leafed pondweed; 320 g/ha applied herbicide): 0 (Herbicidal rate of 5% or less (almost no effect))
Herbicidal effect on B: Japanese bulrush (grade 0-5) (Japanese bulrush; 320 g/ha applied herbicide): 0 (Herbicidal rate of 5% or less (almost no effect))
herbicidal effect on E: rice flat sedge (rice flat sedge; [2]): 3 (Herbicidal rate of 40% or more and less than 70%)
herbicidal effect on D: Chinese sprangletop (Chinese sprangletop; [2]): 1 (Herbicidal rate of 5% or more and less than 20%)
Herbicidal effect on A: late watergrass (grade 0-5) (late watergrass; 320 g/ha applied herbicide): 3 (Herbicidal rate of 40% or more and less than 70%)

COc1cc(F)ccc1-c1sc2ccc(SC)cc2c1-c1c(O)c(C)nn(C)c1=O [2-376]
herbicidal effect on H: barnyard grass (barnyard grass; [3]): 5 (Herbicidal rate of 90% or more (almost completely withered))
Herbicidal effect on C: oval-leafed pondweed (grade 0-5) (oval-leafed pondweed; 246 g/ha applied herbicide): 0 (Herbicidal rate of 5% or less (almost no effect))
Herbicidal effect on B: Japanese bulrush (grade 0-5) (Japanese bulrush; 246 g/ha applied herbicide): 0 (Herbicidal rate of 5% or less (almost no effect))
herbicidal effect on E: rice flat sedge (rice flat sedge; [3]): 3 (Herbicidal rate of 40% or more and less than 70%)
herbicidal effect on D: Chinese sprangletop (Chinese sprangletop; [3]): 3 (Herbicidal rate of 40% or more and less than 70%)
Herbicidal effect on A: late watergrass (grade 0-5) (late watergrass; 246 g/ha applied herbicide): 3 (Herbicidal rate of 40% or more and less than 70%)

Source: patent US20230085307A1, “PYRIDAZINONE COMPOUND AND HERBICIDE” (NISSAN CHEMICAL CORPORATION, priority 2019, published 2023)
